Measurements: patent publication US10051861B2, “N-arylamidine-substituted trifluoroethyl sulfide derivatives as acaricides and insecticides” (BAYER CROPSCIENCE AG, priority 2011, dated 2018)
Where two headings read alike, the source gives them in different places. Marks after values point to notes of the source that are not given here.

How the values were obtained:
[1] = test system: greenhouse red spider mite (Tetranychus urticae); assay: Tetranychus urticae spray test, OP-resistant (TETRUR), bean leaf disks; type: in vivo; details: for pest or weed control at 500 g/ha: Tetranychus urticae, foliar, 144 h, read-out: efficacy (spider mites killed)
Description: After 6 days, the effect in % is determined.

[2] = test system: larvae of the mustard beetle (Phaedon cochleariae); assay: Phaedon cochleariae spray test (PHAECO); details: Phaedon cochleariae, 168 h, read-out: effect (beetle larvae killed)
[3] = logP by HPLC on reversed-phase columns (C 18), EEC Directive 79/831 Annex V.A8; type: physicochemical
Description: Calibration is carried out using unbranched alkan-2-ones (having from 3 to 16 carbon atoms) with known log P values (the log P values are determined by the retention times using linear interpolation between two successive alkanones).

[4] = application rate 500 g/ha, after 6 days
[5] = reversed-phase C18 HPLC column, pH 2.7, [a] LC-MS, acidic range, pH 2.7, 0.1% aqueous formic acid/acetonitrile, read-out: logP(HCOOH)
[6] = reversed-phase C18 HPLC column, pH 7.8, [b] LC-MS, neutral range, pH 7.8, 0.001 molar aqueous ammonium bicarbonate/acetonitrile, read-out: logP(neutral)

SMILES	pest or weed control at 500 g/ha [1, 4] [%]	pest or weed control at 500 g/ha [2] [%]	chromatographic logP [3, 5]	chromatographic logP [3, 6]	also measured
Cc1cc(F)c(/N=C(\N)C2(Cl)CC2F)cc1SCC(F)(F)F (stereo not drawn) [Ia-29]	100	100			
Cc1cc(F)c(/N=C2\CCCN2c2ccc(C(F)(F)F)cc2)cc1SCC(F)(F)F [Ia-191]	100	100			
N/C(=N\c1cc(SCC(F)(F)F)c(Cl)cc1Cl)c1ccccn1 [Ia-134]	100	83			
Cc1cc(Cl)c(/N=C(\N)C(F)(F)C(F)(F)F)cc1SCC(F)(F)F [Ia-38]	100	100			
FC(F)(F)CSc1cc(/N=C(\NC2CC2)c2ccc(Cl)nc2)c(Cl)cc1Cl [Ia-229]	90	100			
N/C(=N\c1cc(SCC(F)(F)F)c(Cl)cc1Cl)c1ccc(Cl)nc1 [Ia-135]	100	100			
C#CCN/C(=N\c1cc([S+]([O-])CC(F)(F)F)c(C)cc1F)C1CC1 (stereo not drawn) [Ib-137]	100	83			
Cc1cc(F)c(N=C(NS(C)(=O)=O)C(F)(F)F)cc1SCC(F)(F)F [Ia-11]					logP(HCOOH) ([3]; pH 2.7): 3.05^[a]; efficacy (spider mites killed) [1, 4]: 100%
CN/C(=N/c1ccc(Cl)c([S+]([O-])CC(F)(F)F)c1)C(F)(F)F (stereo not drawn) [Ib-110]	100	100			
Cc1cc(F)c(/N=C2\CCCN2c2ccc(C(F)(F)F)cc2)cc1[S+]([O-])CC(F)(F)F (stereo not drawn) [Ib-30]	100	83			
[O-][S+](CC(F)(F)F)c1cc(/N=C(\NCC(F)(F)F)C2CC2)c(Cl)cc1Cl (stereo not drawn) [Ib-83]	100	100			
Cc1cc(F)c(/N=C2/NCCCS2)cc1SCC(F)(F)F [Ia-278, 2-fluoro-4-methyl-N-[1,3-thiazinan-2-ylidene]-5-[(2,2,2-trifluoroethyl)sulfanyl]anilinium chloride]					chromatographic logP ([3]; [a] LC-MS, acidic range, pH 2.7, 0.1% aqueous formic acid/acetonitrile, read-out: logP(HCOOH)): 1.34; pest or weed control at 500 g/ha [1]: 90%
N/C(=N/c1cc([S+]([O-])CC(F)(F)F)c(Cl)cc1Br)C(F)(F)F (stereo not drawn) [Ib-57]	100	100			
COc1ccc(N/C(=N/c2cc(SCC(F)(F)F)c(C)cc2F)C(F)(F)F)cc1 [Ia-129]	100		4.2	4.2	
N/C(=N\c1cc(SCC(F)(F)F)c(Cl)cc1Cl)C(Cl)(Cl)Cl [Ia-210]		83			pest or weed control at 500 g/ha [1]: 100%
CN/C(=N/c1cc([S+]([O-])CC(F)(F)F)c(Br)cc1F)C(F)(F)F (stereo not drawn) [Ib-78]	100	100			
Cc1cc(F)c(/N=C(/Nc2ccccc2)C(F)(F)F)cc1SCC(F)(F)F [Ia-96]	100		4.37	4.37	
Cc1cc(F)c(/N=C2\SCC(=O)N2CC(F)(F)F)cc1[S+]([O-])CC(F)(F)F (stereo not drawn) [Ib-71, 2-({2-Fluoro-4-methyl-5-[(2,2,2-trifluoroethyl)sulfinyl]phenyl}imino)-3-(2,2,2-trifluoroethyl)-1,3-thiazolidin-4-one]	100		2.93	2.87	
Cc1cc(F)c(/N=C(\c2ccco2)N(C)C)cc1SCC(F)(F)F [Ia-166, N′-{2-Fluoro-4-methyl-5-[(2,2,2-trifluoroethyl)sulfanyl]phenyl}-N,N-dimethylfuran-2-carboximidamide]	100		1.57	3.94	
Cc1cc(F)c(/N=C(\NCC2CCC(C(F)(F)F)CC2)C2CC2)cc1SCC(F)(F)F (stereo not drawn) [Ia-251]	90		2.23		
N/C(=N/c1cc(SCC(F)(F)F)c(Br)cc1Cl)C(F)(F)F [Ia-121]	100	100			
N/C(=N\c1cc(SCC(F)(F)F)c(Cl)cc1Cl)C1CCC1 [Ia-209]	100	100			
COc1ccc(N/C(=N/c2cc([S+]([O-])CC(F)(F)F)c(C)cc2F)C(F)(F)F)cc1 (stereo not drawn) [Ib-86]	100		3.04	3.05	
Cc1cc(F)c(/N=C(/NCc2ccccc2)C(F)(F)F)cc1SCC(F)(F)F [Ia-171]	90	83			

SMILES	pest or weed control at 500 g/ha [1, 4] [%]	pest or weed control at 500 g/ha [2] [%]	chromatographic logP [3, 5]	chromatographic logP [3, 6]	also measured
CN/C(=N/c1cc([S+]([O-])CC(F)(F)F)c(Cl)cc1Cl)C(F)(F)F (stereo not drawn) [Ib-21]	100		3.32	3.32	
Cc1cc(F)c(/N=C(/NCc2ccc(C(F)(F)F)cc2)C(F)(F)F)cc1[S+]([O-])CC(F)(F)F (stereo not drawn) [Ib-101]	90	100			
Cc1cc(F)c(/N=C(\N)C2CC2F)cc1SCC(F)(F)F (stereo not drawn) [Ia-33]	100	83			
Cc1cc(F)c(/N=C(\NCC(F)(F)F)C2CC2)cc1SCC(F)(F)F [Ia-145, N′-{2-fluoro-4-methyl-5-[(2,2,2-trifluoroethyl)sulfanyl]phenyl}-N-(2,2,2-trifluoroethyl)cyclopropanecarboximidamide]	100		1.99	4.12	
CN(C)/C(CC(F)(F)F)=N\c1cc(SCC(F)(F)F)c(Cl)cc1Cl [Ia-202]	100	100			
CN/C(=N/c1cc(SCC(F)(F)F)c(C)cc1F)c1ccc(C(F)(F)F)cc1 [Ia-250, N′-{2-Fluoro-4-methyl-5-[(2,2,2-trifluoroethyl)sulfanyl]phenyl}-N-methyl-4-(trifluoromethyl)benzenecarboximidamide]	90		1.96	4.08	
Cc1cc(F)c(/N=C(\N)C2CC2)cc1SCC(F)(F)F [Ia-92]	90	83			
Cc1cc(F)c(/N=C2\CCCN2c2ccccc2)cc1SCC(F)(F)F [Ia-78, 2-Fluoro-4-methyl-N-[(2E)-1-phenylpyrrolidin-2-ylidene]-5-[(2,2,2-trifluoroethyl)sulfanyl]aniline]	100	100			
Cc1cc(F)c(/N=C(/Nc2ccccc2)C(F)(F)F)cc1[S+]([O-])CC(F)(F)F (stereo not drawn) [Ib-49]	100		3.22	3.12	
Cc1cc(F)c(/N=C(\N)c2cnccn2)cc1SCC(F)(F)F [Ia-117, N′-{2-Fluoro-4-methyl-5-[(2,2,2-trifluoroethyl)sulfanyl]phenyl}pyrazine-2-carboximidamide]	90		1.24		
CN/C(=N/c1cc(SCC(F)(F)F)c(C)cc1F)c1ccc(OC)cc1 [Ia-165]	100		1.68	3.49	
CN(C)/C(=N\c1cc(SCC(F)(F)F)c(Cl)cc1Cl)c1ccccc1Cl [Ia-207]	100	83			
Cc1cc(F)c(/N=C(\NC2CC2)C2CC2)cc1[S+]([O-])CC(F)(F)F (stereo not drawn) [Ib-39]	100	100			
CN(C)/C(=N/c1cc(SCC(F)(F)F)c(Cl)cc1F)C(F)(F)F [Ia-35]	100	100			
Cc1cc(F)c(/N=C(\N)[C@H]2CC2(C)C)cc1SCC(F)(F)F [Ia-79]	100	100			
Cc1cc(F)c(/N=C(/NCc2ccc(C(F)(F)F)cc2)C(F)(F)F)cc1SCC(F)(F)F [Ia-89]	100		5.15	5.15	
Cc1cc(F)c(/N=C(\N)c2cnccn2)cc1[S+]([O-])CC(F)(F)F (stereo not drawn) [Ib-62, N′-{2-Fluoro-4-methyl-5-[(2,2,2-trifluoroethyl)sulfinyl]phenyl}pyrazine-2-carboximidamide]	100		0.84	1.77	
Cc1cc(F)c(/N=C(/NCC2CC2)C(F)(F)F)cc1SCC(F)(F)F [Ia-41]	100		4.62		
COc1ccccc1/C(=N\c1cc([S+]([O-])CC(F)(F)F)c(C)cc1F)N(C)C (stereo not drawn) [Ib-161]			1.28	2.95	
COc1cc(C)c(SSc2cc(NC(C)=O)c(OC)cc2C)cc1NC(C)=O [N,N′-[Disulfanediylbis(6-methoxy-4-methylbenzene-3,1-diyl)]diacetamide]			2.73		
O=C(Nc1cc(SCC(F)(F)F)c(Br)cc1Br)C(F)(F)F [III-6, N-{2,4-Dibromo-5-[(2,2,2-trifluoroethyl)sulfanyl]phenyl}-2,2,2-trifluoroacetamide]			3.81		
Cc1cc(F)c(NC(=O)c2ccc(C(F)(F)F)cc2)cc1SCC(F)(F)F [N-{2-Fluoro-4-methyl-5-[(2,2,2-trifluoroethyl)sulfanyl]phenyl}-4-(trifluoromethyl)benzamide]			4.2	4.17	
Cc1cc(F)c(/N=C2\SCC(=O)N2CC(F)(F)F)cc1SCC(F)(F)F [Ia-175, 2-({2-Fluoro-4-methyl-5-[(2,2,2-trifluoroethyl)sulfanyl]phenyl}imino)-3-(2,2,2-trifluoroethyl)-1,3-thiazolidin-4-one]	90		4.09	3.99	
